In patent publication US20230295130A1, “COMPOUND USEFUL AS CDK7 KINASE INHIBITOR AND USE THEREOF” (TYK MEDICINES, INC., priority 2020, published 2023):

Assays:
Test in all cases: Enzyme activity test, mobility shift assay (Table 1)
Type in all cases: biochemical
[1] = biological target: CDK12 (aa686-1082)/Cyclin K (Homo sapiens (Human), UniProt Q9NYV4); conditions: 2 mM ATP; read-out: CDK12 kinase IC50
Protocol: (§1) The compound powder was dissolved in 100% DMSO to prepare a 10 mM storage solution. The storage solution was further diluted to 0.5 mM as the initial concentration, and continuously diluted 3 times to obtain 10 compound solutions with different concentrations. The compound and enzyme were pre-incubated for 0 minutes and 60 minutes, respectively, using duplicate detection. Compound Staurosporine having a structural formula of
(§2) was used as a positive control, and Mobility shift assay method was used to detect CDK kinase (such as CDK7, CDK9, CDK12 and CDK2) activity of the compounds.

[2] = biological target: CDK7/Cyclin H/MAT1 kinase (Homo sapiens (Human), UniProt P50613); conditions: 2 mM ATP; pre-incubated 0 and 60 minutes
Sequence of CDK7/Cyclin H/MAT1 kinase (P50613 whole entry): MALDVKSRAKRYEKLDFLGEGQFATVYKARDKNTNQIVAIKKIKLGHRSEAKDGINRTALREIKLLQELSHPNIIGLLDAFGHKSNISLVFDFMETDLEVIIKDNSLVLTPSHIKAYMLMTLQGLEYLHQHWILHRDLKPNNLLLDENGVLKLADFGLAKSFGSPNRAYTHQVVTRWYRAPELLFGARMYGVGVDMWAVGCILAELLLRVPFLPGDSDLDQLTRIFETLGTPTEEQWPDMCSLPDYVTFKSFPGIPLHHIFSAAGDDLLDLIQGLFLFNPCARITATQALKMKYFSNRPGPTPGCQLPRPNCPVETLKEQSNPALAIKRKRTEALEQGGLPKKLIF
Sequence of CDK7/Cyclin H/MAT1 kinase (P51946 whole entry partner): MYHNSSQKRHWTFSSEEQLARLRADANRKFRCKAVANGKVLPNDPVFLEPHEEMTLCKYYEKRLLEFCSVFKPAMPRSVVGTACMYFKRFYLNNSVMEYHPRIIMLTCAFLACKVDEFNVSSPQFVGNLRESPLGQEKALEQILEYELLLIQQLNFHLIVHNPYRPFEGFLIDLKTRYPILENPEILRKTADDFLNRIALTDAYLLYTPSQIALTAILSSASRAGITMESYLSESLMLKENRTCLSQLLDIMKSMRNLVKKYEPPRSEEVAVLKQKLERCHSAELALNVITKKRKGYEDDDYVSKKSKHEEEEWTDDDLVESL
Sequence of CDK7/Cyclin H/MAT1 kinase (P51948 whole entry partner): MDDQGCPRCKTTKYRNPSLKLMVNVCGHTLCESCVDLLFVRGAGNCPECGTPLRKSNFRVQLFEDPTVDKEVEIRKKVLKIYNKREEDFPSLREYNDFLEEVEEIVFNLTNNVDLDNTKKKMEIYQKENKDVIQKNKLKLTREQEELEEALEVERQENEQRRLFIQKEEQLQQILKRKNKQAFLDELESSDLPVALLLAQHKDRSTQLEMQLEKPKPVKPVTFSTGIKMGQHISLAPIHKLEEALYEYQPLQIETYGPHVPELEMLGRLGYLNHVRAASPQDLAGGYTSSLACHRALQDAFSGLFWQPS
Protocol: IC50 values of the compounds for CDK7 kinase were detected in Wuxi Biortus Biosciences Co. Ltd.
as §1, with “detection.” for “detection. Compound Staurosporine having a structural formula of”
as §2

CDK2/Cyclin El = CDK2/Cyclin El (Homo sapiens (Human), UniProt P24941); conditions: 2 mM ATP; read-out: CDK2 kinase IC50
Protocol: as §1, with “detection.” for “detection. Compound Staurosporine having a structural formula of”
as §2

CDK9/Cyclin Tl = CDK9/Cyclin Tl (Homo sapiens (Human), UniProt P50750); conditions: 2 mM ATP; read-out: CDK9 kinase IC50
Sequence of CDK9/Cyclin Tl (P50750 whole entry): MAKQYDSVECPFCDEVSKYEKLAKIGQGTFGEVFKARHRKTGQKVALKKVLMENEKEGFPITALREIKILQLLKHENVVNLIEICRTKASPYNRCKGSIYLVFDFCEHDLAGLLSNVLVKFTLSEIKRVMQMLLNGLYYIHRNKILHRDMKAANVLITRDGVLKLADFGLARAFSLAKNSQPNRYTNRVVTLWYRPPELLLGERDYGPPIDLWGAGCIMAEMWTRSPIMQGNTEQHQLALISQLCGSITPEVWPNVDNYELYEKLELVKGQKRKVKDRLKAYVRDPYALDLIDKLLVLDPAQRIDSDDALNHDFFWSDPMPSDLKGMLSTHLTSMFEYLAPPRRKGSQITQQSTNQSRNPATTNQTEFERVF
Sequence of CDK9/Cyclin Tl (O60563 whole entry partner): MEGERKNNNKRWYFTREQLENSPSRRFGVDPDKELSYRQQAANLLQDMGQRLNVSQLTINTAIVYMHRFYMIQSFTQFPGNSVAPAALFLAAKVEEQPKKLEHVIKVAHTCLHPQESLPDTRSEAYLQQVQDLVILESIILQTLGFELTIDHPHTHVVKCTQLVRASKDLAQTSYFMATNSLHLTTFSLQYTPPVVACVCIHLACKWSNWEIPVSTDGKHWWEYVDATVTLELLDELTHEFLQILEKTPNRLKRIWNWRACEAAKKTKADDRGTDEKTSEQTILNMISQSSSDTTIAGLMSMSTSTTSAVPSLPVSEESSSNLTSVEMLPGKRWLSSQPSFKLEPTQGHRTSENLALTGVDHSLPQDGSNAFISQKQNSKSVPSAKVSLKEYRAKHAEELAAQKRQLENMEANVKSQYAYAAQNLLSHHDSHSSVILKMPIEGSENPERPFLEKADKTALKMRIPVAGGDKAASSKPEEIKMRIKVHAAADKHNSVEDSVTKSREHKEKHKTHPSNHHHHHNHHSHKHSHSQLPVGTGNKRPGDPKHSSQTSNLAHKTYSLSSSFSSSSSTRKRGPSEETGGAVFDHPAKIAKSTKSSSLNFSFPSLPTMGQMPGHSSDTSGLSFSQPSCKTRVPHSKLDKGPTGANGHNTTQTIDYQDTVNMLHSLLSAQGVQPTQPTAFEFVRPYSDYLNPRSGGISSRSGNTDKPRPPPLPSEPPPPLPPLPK
Protocol: as §1, with “detection.” for “detection. Compound Staurosporine having a structural formula of”
as §2

Sequence of CDK12 (aa686-1082)/Cyclin K (Q9NYV4 686-1082): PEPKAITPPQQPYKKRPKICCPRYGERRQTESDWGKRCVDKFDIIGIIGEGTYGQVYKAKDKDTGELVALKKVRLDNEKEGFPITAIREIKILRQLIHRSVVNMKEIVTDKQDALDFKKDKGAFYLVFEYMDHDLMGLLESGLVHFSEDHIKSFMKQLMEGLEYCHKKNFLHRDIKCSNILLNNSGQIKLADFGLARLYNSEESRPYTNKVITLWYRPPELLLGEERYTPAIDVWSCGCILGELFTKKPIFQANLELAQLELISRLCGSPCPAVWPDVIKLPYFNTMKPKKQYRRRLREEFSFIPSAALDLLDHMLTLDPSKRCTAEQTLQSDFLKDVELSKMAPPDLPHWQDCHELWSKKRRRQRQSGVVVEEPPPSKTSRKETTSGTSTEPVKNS
Sequence of CDK12 (aa686-1082)/Cyclin K (O75909 whole entry partner, the tested form may be a part): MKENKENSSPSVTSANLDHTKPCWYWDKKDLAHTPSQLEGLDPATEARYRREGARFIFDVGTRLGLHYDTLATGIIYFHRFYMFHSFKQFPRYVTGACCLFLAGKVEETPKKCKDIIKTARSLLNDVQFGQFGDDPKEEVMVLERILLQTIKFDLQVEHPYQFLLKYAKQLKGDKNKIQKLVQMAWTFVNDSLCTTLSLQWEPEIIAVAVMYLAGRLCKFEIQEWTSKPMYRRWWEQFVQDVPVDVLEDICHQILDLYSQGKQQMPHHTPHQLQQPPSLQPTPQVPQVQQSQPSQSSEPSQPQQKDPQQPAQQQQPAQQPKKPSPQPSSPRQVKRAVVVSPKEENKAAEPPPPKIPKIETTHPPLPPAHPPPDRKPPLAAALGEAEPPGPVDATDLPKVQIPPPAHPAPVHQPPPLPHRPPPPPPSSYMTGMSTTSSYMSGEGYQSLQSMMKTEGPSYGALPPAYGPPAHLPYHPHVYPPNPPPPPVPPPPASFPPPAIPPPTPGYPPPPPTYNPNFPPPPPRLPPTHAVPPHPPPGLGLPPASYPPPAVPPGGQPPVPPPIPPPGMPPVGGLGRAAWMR

IC50 [1] | IC50 [2] | IC50 (CDK2/Cyclin El) | IC50 (CDK9/Cyclin Tl) | Compound
> 500 nM | < 50 nM | > 500 nM | > 500 nM | COC(=O)Nc1ccc2c(-c3nc(N[C@H]4CCCNC4)ncc3C(F)(F)F)c[nH]c2c1[S+]([O-])C(C)C (stereo partly shown) [Example T-65]
> 500 nM | < 50 nM | > 500 nM | > 500 nM | COC(=O)Nc1ccc2c(-c3nc(N[C@H]4CCCNC4)ncc3C(F)(F)F)c[nH]c2c1SC(C)C [Example T-66]
> 500 nM | < 50 nM | > 500 nM | > 500 nM | COC(=O)Nc1ccc2c(-c3nc(N[C@H]4CCC[C@@H]4N)ncc3C(F)(F)F)c[nH]c2c1Br [Example T-67]
> 500 nM | < 50 nM | > 500 nM | > 500 nM | COC(=O)Nc1ccc2c(-c3nc(N[C@H]4CCCNC4)ncc3C(F)(F)F)c[nH]c2c1-c1cnn(C)c1 [Example T-68]
> 500 nM | < 50 nM | > 500 nM | > 500 nM | COC(=O)Nc1ccc2c(-c3nc(N[C@H]4CCCNC4)ncc3C(F)(F)F)c[nH]c2c1C(C)C [Example T-69]
> 500 nM | < 50 nM | > 500 nM | > 500 nM | COC(=O)Nc1ccc2c(-c3nc(N[C@H]4CCCNC4)ncc3Br)c[nH]c2c1Br [Example T-75]
> 500 nM | < 50 nM | > 500 nM | > 500 nM | COC(=O)Nc1ccc2c(-c3nc(N[C@H]4CCC(C)(C)NC4)ncc3C(F)(F)F)c[nH]c2c1Cl [Example T-80]
> 500 nM | < 50 nM | > 500 nM | > 500 nM | CCOC(=O)Nc1ccc2c(-c3nc(N[C@H]4CCC(C)(C)NC4)ncc3C(F)(F)F)c[nH]c2c1Cl [Example T-82]
> 500 nM | < 50 nM | > 500 nM | > 500 nM | COC(=O)Nc1ccc2c(-c3nc(N[C@H]4CCCNC4)ncc3C(F)(F)F)c[nH]c2c1C1COC1 [Example T-84]
> 500 nM | < 50 nM | > 500 nM | > 500 nM | COC(=O)Nc1ccc2c(-c3nc(N[C@H]4CCC(C)(C)NC4)ncc3Cl)c[nH]c2c1OCC(F)(F)F [Example T-85]
> 500 nM | < 50 nM | > 500 nM | > 500 nM | COC(=O)Nc1ccc2c(-c3nc(N[C@H]4CCC(C)(C)NC4)ncc3Cl)c[nH]c2c1CC(F)(F)F [Example T-86]
> 500 nM | < 50 nM | > 500 nM | > 500 nM | COC(=O)Nc1ccc2c(-c3nc(N[C@H]4CCCNC4)ncc3Cl)c[nH]c2c1C(F)(F)F [Example T-88]
> 500 nM | < 50 nM | > 500 nM | > 500 nM | COC(=O)Nc1ccc2c(-c3nc(N[C@H]4CCC(C)(C)NC4)ncc3Cl)c[nH]c2c1OC(F)(F)F [Example T-96]
> 500 nM | < 50 nM | > 500 nM | > 500 nM | COC(=O)Nc1ccc2c(-c3nc(N[C@H]4CCC5(CC5)NC4)ncc3C(F)(F)F)c[nH]c2c1C(F)(F)F [Example T-100]
> 500 nM | < 50 nM | > 500 nM | > 500 nM | COC(=O)N(C)c1ccc2c(-c3nc(N[C@H]4CCCNC4)ncc3C(F)(F)F)c[nH]c2c1Br [Example T-102]
> 500 nM | < 50 nM | > 500 nM | > 500 nM | COC(=O)Nc1ccc2c(-c3nc(N[C@H]4CCC(C)(C)NC4)ncc3C(F)(F)F)c[nH]c2c1C1CC1(F)F (stereo partly shown) [Example T-105]
> 500 nM | < 50 nM | > 500 nM | > 500 nM | COC(=O)Nc1ccc2c(-c3nc(N[C@H]4CCC(C)(C)NC4)ncc3C(F)(F)F)c[nH]c2c1C1CC(F)(F)C1 [Example T-106]
> 500 nM | < 50 nM | > 500 nM | > 500 nM | COC(=O)Nc1ccc2c(-c3nc(N[C@H]4CCC(C)(C)NC4)ncc3C(F)(F)F)c[nH]c2c1C(F)F [Example T-107]
> 500 nM | < 50 nM | > 500 nM | > 500 nM | COC(=O)Nc1ccc2c(-c3nc(N[C@H]4CCC(C)(C)NC4)ncc3C(F)(F)F)c[nH]c2c1OC(F)F [Example T-108]
> 500 nM | < 50 nM | > 500 nM | > 500 nM | COC(=O)Nc1ccc2c(-c3nc(N[C@H]4CCC(C)(C)NC4)ncc3C(F)(F)F)c[nH]c2c1OC(F)(F)F [Example T-109]

IC50 [1] | IC50 [2] | IC50 (CDK2/Cyclin El) | IC50 (CDK9/Cyclin Tl) | Compound
> 500 nM | < 50 nM | > 500 nM | > 500 nM | CCOC(=O)Nc1ccc2c(-c3nc(N[C@H]4CCCNC4)ncc3C(F)(F)F)c[nH]c2c1C1CC1 [Example T-127]
> 500 nM | 50 to 500 nM | > 500 nM | > 500 nM | COC(=O)Nc1ccc2c(-c3nc(N[C@H]4CCC(C)NC4)ncc3C(F)(F)F)c[nH]c2c1C1CC1 (stereo partly shown) [Example T-129]
> 500 nM | 50 to 500 nM | > 500 nM | > 500 nM | COC(=O)Nc1ccc2c(-c3nc(N[C@H]4CC[C@@H](C)NC4)ncc3C(F)(F)F)c[nH]c2c1C1CC1 [Example T-130]
> 500 nM | 50 to 500 nM | > 500 nM | > 500 nM | COC(=O)Nc1ccc2c(-c3nc(N[C@H]4CC[C@H](C)NC4)ncc3C(F)(F)F)c[nH]c2c1C1CC1 [Example T-131]
> 500 nM | < 50 nM | > 500 nM | > 500 nM | COC(=O)Nc1ccc2c(-c3nc(N[C@H]4CCC(C)(C)NC4)ncc3C(F)(F)F)c[nH]c2c1C(C)=O [Example T-134]
> 500 nM | < 50 nM | > 500 nM | > 500 nM | COC(=O)Nc1ccc2c(-c3nc(N[C@H]4CCC(C)(C)NC4)ncc3C(F)(F)F)c[nH]c2c1C(C)(F)F [Example T-136]
> 500 nM | < 50 nM | > 500 nM | > 500 nM | COC(=O)Nc1ccc2c(-c3nc(N[C@H]4CCC5(CC5)NC4)ncc3C(F)(F)F)c[nH]c2c1C(C)(F)F [Example T-137]
> 500 nM | < 50 nM | > 500 nM | > 500 nM | CCOc1c(NC(=O)OC)ccc2c(-c3nc(N[C@H]4CCCNC4)ncc3C(F)(F)F)c[nH]c12 [Example T-138]
> 500 nM | < 50 nM | > 500 nM | > 500 nM | COC(=O)Nc1ccc2c(-c3nc(N[C@H]4CCCNC4)ncc3C(F)(F)F)c[nH]c2c1OCC(F)(F)F [Example T-139]
> 500 nM | 50 to 500 nM | > 500 nM | > 500 nM | COC(=O)Nc1ccc2c(-c3nc(N[C@H]4CC[C@@H](C)NC4)ncc3C(F)(F)F)c[nH]c2c1OC [Example T-140]
> 500 nM | 50 to 500 nM | > 500 nM | > 500 nM | COC(=O)Nc1ccc2c(-c3nc(N[C@H]4CC[C@@H](C)NC4)ncc3C(F)(F)F)c[nH]c2c1Br [Example T-143]
> 500 nM | 50 to 500 nM | > 500 nM | > 500 nM | COC(=O)Nc1ccc2c(-c3nc(N[C@H]4CC[C@@H](C)NC4)ncc3C(F)(F)F)c[nH]c2c1Cl [Example T-146]
> 500 nM | 50 to 500 nM | > 500 nM | > 500 nM | COC(=O)Nc1ccc2c(-c3nc(N[C@H]4CC[C@@H](C)NC4)ncc3C(F)(F)F)c[nH]c2c1C(F)(F)F [Example T-149]
> 500 nM | 50 to 500 nM | > 500 nM | > 500 nM | COC(=O)Nc1ccc2c(-c3nc(N[C@H]4CC[C@@H](C)NC4)ncc3C(F)(F)F)c[nH]c2c1OCC(F)(F)F [Example T-151]
> 500 nM | < 50 nM | > 500 nM | > 500 nM | CCOC(=O)Nc1ccc2c(-c3nc(N[C@H]4CCC(C)(C)NC4)ncc3C(F)(F)F)c[nH]c2c1C(C)(F)F [Example T-153]
> 500 nM | < 50 nM | > 500 nM | > 500 nM | COC(=O)Nc1ccc2c(-c3nc(N[C@H]4CCC5(CC5)NC4)ncc3C(F)(F)F)c[nH]c2c1OC(F)F [Example T-154]
> 500 nM | < 50 nM | > 500 nM | > 500 nM | COC(=O)Nc1ccc2c(-c3nc(N[C@H]4CCCNC4)ncc3C(F)(F)F)c[nH]c2c1C(F)F [Example T-155]
> 500 nM | < 50 nM | > 500 nM | > 500 nM | CCOc1c(NC(=O)OC)ccc2c(-c3nc(N[C@H]4CCCN(C)C4)ncc3C(F)(F)F)c[nH]c12 [Example T-161]
> 500 nM | < 50 nM | > 500 nM | > 500 nM | COC(=O)N(C)c1ccc2c(-c3nc(N[C@H]4CCCNC4)ncc3C(F)(F)F)c[nH]c2c1Cl [Example T-162]
> 500 nM | < 50 nM | > 500 nM | > 500 nM | COC(=O)N(C)c1ccc2c(-c3nc(N[C@H]4CCCNC4)ncc3C(F)(F)F)c[nH]c2c1C(F)F [Example T-163]
